Common to all, as to type: biochemical
In one assay the target is Bovine LOX (Bos taurus (Bovine), UniProt P33072). Nature of the assay: LOX inhibition, peroxidase-coupled Amplex Red amine oxidase assay. Particulars: 30 min preincubation at 37° C., putrescine substrate. The source says: (§1) Method to Determine the Ability of Compounds of the Invention to Inhibit LOX and LOXL1-4 from Different Sources
Lysyl oxidase (LOX) is an extracellular copper dependent enzyme which oxidizes peptidyl lysine and hydroxylysine residues in collagen and lysine residues in elastin to produce peptidyl alpha-aminoadipic-delta-semialdehydes. […] There are five LOX family members; these are LOX, LOXL1, LOXL2, LOXL3 and LOXL4. LOX and LOXL family members can be acquired as recombinant active proteins from commercial sources, or extracted from animal tissues like bovine aorta, tendons, pig skin; or prepared from cell cultures. The inhibitory effects of the compounds of the present invention were tested against the given LOX-LOXL preparation using a high-throughput coupled colorimetric method (Holt A. and Palcic M., A peroxidase-coupled continuous absorbance plate-reader assay for flavin monoamine oxidases, copper-containing amine oxidases and related enzymes. Nat. Protoc. 2006; 1: 2498-2505). The assay was developed using either 384 or 96 well format. Briefly, in a standard 384 well plate assay 25 μL of a dilution of any of the isoenzymes and orthologues in 1.2 M urea, 50 mM sodium borate buffer (pH 8.2) were added into each well in the presence of 1 μM mofegiline and 0.5 mM pargyline (to inhibit SSAO and MAO-B and MAO-A, respectively). […] of a reaction mixture containing twice the KM concentration of putrescine (Sigma Aldrich, e.g. 20 mM for LOX, or 10 mM for LOXL2 and LOXL3), 120 μM Amplex Red (Sigma Aldrich) and 1.5 U/mL horseradish peroxidase (Sigma Aldrich) prepared in 1.2 M urea, 50 mM sodium borate buffer (pH 8.2) were then added to the corresponding wells. The above volumes were doubled in the case of 96 wells plate. The fluorescence (RFU) was read every 2.5 min for 30 min at a range of temperatures from 37° to 45° C., excitation 565 nm and emission 590 (Optima; BMG labtech). The slope of the kinetics for each well was calculated using MARS data analysis software (BMG labtech) and this value was used to deduce the IC50 value (Dotmatics).

The next assay deals with Human LOXL2 (Homo sapiens (Human), UniProt Q9Y4K0). Description: LOXL2 inhibition, peroxidase-coupled Amplex Red amine oxidase assay. Particulars: 30 min preincubation at 37° C., putrescine substrate.
Source text: as §1
Lysyl oxidase (LOX) is an extracellular copper dependent enzyme which oxidizes peptidyl lysine and hydroxylysine residues in collagen and lysine residues in elastin to produce peptidyl alpha-aminoadipic-delta-semialdehydes. […] There are five LOX family members; these are LOX, LOXL1, LOXL2, LOXL3 and LOXL4. LOX and LOXL family members can be acquired as recombinant active proteins from commercial sources, or extracted from animal tissues like bovine aorta, tendons, pig skin; or prepared from cell cultures. The inhibitory effects of the compounds of the present invention were tested against the given LOX-LOXL preparation using a high-throughput coupled colorimetric method (Holt A. and Palcic M., A peroxidase-coupled continuous absorbance plate-reader assay for flavin monoamine oxidases, copper-containing amine oxidases and related enzymes. Nat. Protoc. 2006; 1: 2498-2505). The assay was developed using either 384 or 96 well format. Briefly, in a standard 384 well plate assay 25 μL of a dilution of any of the isoenzymes and orthologues in 1.2 M urea, 50 mM sodium borate buffer (pH 8.2) were added into each well in the presence of 1 μM mofegiline and 0.5 mM pargyline (to inhibit SSAO and MAO-B and MAO-A, respectively). Test compounds were dissolved in DMSO and tested in a Concentration Response Curve (CRC) with 11 data points, typically in the micromolar or nanomolar range after incubation with the enzyme for 30 min at 37° C. Twenty five L of a reaction mixture containing twice the KM concentration of putrescine (Sigma Aldrich, e.g. 20 mM for LOX, or 10 mM for LOXL2 and LOXL3), 120 μM Amplex Red (Sigma Aldrich) and 1.5 U/mL horseradish peroxidase (Sigma Aldrich) prepared in 1.2 M urea, 50 mM sodium borate buffer (pH 8.2) were then added to the corresponding wells. The above volumes were doubled in the case of 96 wells plate. The fluorescence (RFU) was read every 2.5 min for 30 min at a range of temperatures from 37° to 45° C., excitation 565 nm and emission 590 (Optima; BMG labtech). The slope of the kinetics for each well was calculated using MARS data analysis software (BMG labtech) and this value was used to deduce the IC50 value (Dotmatics).

The target in assay [1] is human recombinant SSAO/VAP-1 (Homo sapiens (Human), UniProt Q16853). Description: Inhibition of human recombinant SSAO/VAP-1 amine oxidase activity. The settings on record: 30 min preincubation at 37° C., 600 μM benzylamine. The procedure:
Method to Determine the Ability of Compounds of Formula I to Inhibit Human Recombinant SSAO/VAP-1
Human recombinant SSAO/VAP-1 amine oxidase activity was determined using the coupled colorimetric method as described for monoamine oxidase, copper-containing amine oxidases and related enzymes (Holt A. and Palcic M., A peroxidase-coupled continuous absorbance plate-reader assay for flavin monoamine oxidases, copper-containing amine oxidases and related enzymes. Nat Protoc 2006; 1: 2498-2505). Briefly, a cloned cDNA template corresponding to residues 34-763 of human SSAO/VAP-1, and incorporating a mouse Ig kappa (κ) signal sequence, N-terminal flag epitope tag and tobacco etch virus (TEV) cleavage site, was assembled in a mammalian expression vector (pLO-CMV) by Geneart AG. This vector containing human SSAO/VAP-1 residues was transfected into CHO-K1 glycosylation mutant cell line, Lec 8. A clone stably expressing human SSAO/VAP-1 was isolated and cultured in large scale. Active human SSAO/VAP-1 was purified and recovered using immunoaffinity chromatography. This was used as the source for SSAO/VAP-1 activity. A high-throughput colorimetric assay was developed using either 96 or 384 well format. Briefly, in a standard 96 well plate assay 50 μL of purified human SSAO/VAP-1 (0.25 μg/mL) in 0.1 M sodium phosphate buffer (pH 7.4) was added into each well. Test compounds were dissolved in DMSO and tested in a Concentration Response Curve (CRC) with 4-11 data points, typically in the micromolar or nanomolar range after incubation with human SSAO/VAP-1 for 30 min at 37° C. After 30 min incubation, 50 μL of the reaction mixture containing 600 μM benzylamine (Sigma Aldrich), 120 μM Amplex Red (Sigma Aldrich) and 1.5 U/mL horseradish peroxidase (Sigma Aldrich) prepared in 0.1 M sodium phosphate buffer (pH 7.4) were added to the corresponding well. The fluorescence unit (RFU) was read every 2.5 min for 30 min at 37° C. excitation 565 nm and emission 590 (Optima; BMG labtech). The slope of the kinetics for each well was calculated using MARS data analysis software (BMG labtech) and this value was used to deduce the IC50 value (Dotmatics).

The target of another assay is Recombinant human MAO-B (Homo sapiens (Human), UniProt P27338). Nature of the assay: Inhibition of human recombinant MAO-B. Particulars: benzylamine 100 μM. The procedure:
Method to Determine the Ability of Compounds of Formula I to Inhibit Human Recombinant MAO-B
The specificity of the compounds of this invention was tested by determining their ability to inhibit MAO-B activities in vitro. Recombinant human MAO-B (0.06 mg/mL; Sigma Aldrich) was used as source of MAO-B enzyme activities. The assay was performed in a similar way as for human SSAO/VAP-1 (Example 66) except, the substrate benzylamine was used at 100 μM.

Counter-ions that a name gives are not always drawn. Where only a bound is given, the exact number is not on record here.

Broadly, the IC50 is the concentration that gives 50% inhibition.

Sequence of Human LOXL2 (Q9Y4K0 26-774): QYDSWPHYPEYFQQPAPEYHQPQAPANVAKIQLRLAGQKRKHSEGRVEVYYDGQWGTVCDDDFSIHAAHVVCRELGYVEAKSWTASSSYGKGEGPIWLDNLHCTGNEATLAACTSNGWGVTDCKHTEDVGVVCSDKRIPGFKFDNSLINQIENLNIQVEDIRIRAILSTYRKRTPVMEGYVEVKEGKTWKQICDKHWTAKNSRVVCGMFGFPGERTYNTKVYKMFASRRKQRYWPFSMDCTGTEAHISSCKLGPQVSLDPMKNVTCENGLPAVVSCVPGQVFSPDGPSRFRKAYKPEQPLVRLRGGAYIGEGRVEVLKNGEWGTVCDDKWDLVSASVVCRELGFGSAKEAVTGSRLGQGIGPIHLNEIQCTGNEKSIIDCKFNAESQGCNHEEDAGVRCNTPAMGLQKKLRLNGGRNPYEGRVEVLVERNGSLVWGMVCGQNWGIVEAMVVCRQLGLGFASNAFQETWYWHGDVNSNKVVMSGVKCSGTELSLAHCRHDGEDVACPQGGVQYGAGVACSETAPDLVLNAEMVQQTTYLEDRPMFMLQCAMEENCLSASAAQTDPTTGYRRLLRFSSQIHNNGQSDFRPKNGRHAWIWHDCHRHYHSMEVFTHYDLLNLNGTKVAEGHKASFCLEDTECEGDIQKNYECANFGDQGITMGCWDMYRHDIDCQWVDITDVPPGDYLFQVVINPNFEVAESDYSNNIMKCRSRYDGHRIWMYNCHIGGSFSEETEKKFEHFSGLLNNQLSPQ
Sequence of Recombinant human MAO-B (P27338 whole entry): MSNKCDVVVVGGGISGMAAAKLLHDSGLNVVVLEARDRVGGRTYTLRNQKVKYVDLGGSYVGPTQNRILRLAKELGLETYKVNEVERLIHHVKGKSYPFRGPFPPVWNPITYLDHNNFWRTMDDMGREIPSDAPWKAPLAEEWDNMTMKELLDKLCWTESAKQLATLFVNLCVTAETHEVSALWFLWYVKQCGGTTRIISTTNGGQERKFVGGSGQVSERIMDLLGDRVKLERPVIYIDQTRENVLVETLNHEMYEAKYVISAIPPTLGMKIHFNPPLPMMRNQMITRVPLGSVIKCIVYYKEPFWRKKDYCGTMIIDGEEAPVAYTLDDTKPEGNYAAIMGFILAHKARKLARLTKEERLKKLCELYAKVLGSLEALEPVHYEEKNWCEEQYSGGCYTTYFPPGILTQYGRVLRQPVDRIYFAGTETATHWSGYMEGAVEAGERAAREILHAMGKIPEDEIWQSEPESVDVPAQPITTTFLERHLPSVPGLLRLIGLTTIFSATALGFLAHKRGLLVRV
Sequence of Bovine LOX (P33072 170-418): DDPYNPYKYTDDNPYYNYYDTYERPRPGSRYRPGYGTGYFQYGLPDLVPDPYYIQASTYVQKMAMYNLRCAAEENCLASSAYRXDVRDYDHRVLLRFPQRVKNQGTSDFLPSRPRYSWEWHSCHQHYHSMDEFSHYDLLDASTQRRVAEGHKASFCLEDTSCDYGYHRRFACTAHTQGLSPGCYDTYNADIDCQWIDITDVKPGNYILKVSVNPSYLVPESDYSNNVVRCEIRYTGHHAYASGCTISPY
Sequence of human recombinant SSAO/VAP-1 (Q16853 34-763): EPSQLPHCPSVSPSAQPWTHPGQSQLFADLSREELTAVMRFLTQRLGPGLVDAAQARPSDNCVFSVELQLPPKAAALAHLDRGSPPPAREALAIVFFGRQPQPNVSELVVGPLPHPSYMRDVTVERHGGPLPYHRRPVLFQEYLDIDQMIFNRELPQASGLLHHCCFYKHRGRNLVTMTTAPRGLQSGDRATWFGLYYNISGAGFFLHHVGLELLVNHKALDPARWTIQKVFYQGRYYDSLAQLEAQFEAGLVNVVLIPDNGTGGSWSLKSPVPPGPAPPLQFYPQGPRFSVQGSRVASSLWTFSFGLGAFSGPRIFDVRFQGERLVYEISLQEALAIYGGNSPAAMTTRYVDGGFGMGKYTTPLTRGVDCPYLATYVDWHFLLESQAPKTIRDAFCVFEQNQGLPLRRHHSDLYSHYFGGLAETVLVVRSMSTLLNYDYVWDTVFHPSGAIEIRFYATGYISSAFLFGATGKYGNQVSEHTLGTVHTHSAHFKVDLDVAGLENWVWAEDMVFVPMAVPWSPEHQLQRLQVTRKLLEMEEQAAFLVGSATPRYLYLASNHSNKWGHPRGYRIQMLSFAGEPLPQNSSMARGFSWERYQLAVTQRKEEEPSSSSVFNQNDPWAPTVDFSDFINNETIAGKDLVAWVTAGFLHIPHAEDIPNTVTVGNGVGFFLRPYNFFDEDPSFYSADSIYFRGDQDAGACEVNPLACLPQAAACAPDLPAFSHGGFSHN

In the case of `Cc1c(-c2c(C)n(C/C(F)=C/CN)c3ccc(C(=O)O)cc23)cccc1S(=O)(=O)N(C)C` [Compound 13, (Z)-1-(4-amino-2-fluorobut-2-en-1-yl)-3-(3-(N,N-dimethylsulfamoyl)-2-methylphenyl)-2-methyl-1H-indole-5-carboxylic acid], the half-inhibitory concentration (IC50) was more than 300 nM at Bovine LOX, less than 300 nM against Human LOXL2, more than 3000 nM in assay [1] and more than 3000 nM on Recombinant human MAO-B.

On to `Cc1c(-c2cccc(C(=O)N(C)C)c2)c2cc(C(=O)O)ccc2n1C/C(F)=C/CN` [Compound 16, (Z)-1-(4-amino-2-fluorobut-2-en-1-yl)-3-(3-(dimethylcarbamoyl)phenyl)-2-methyl-1H-indole-5-carboxylic Acid Hydrochloride], for which the IC50 against Bovine LOX was more than 300 nM; against Human LOXL2, less than 300 nM; in assay [1], more than 3000 nM; at Recombinant human MAO-B, more than 3000 nM.

As to `Cc1c(-c2cccc(S(=O)(=O)N(C)C)c2)c2nc(C(F)(F)F)ccc2n1C/C(F)=C/CN` [Compound 110, (Z)-3-(1-(4-amino-2-fluorobut-2-en-1-yl)-2-methyl-5-(trifluoromethyl)-1H-pyrrolo[3,2-b]pyridin-3-yl)-N,N-dimethylbenzenesulfonamide], the IC50 on Bovine LOX was more than 300 nM; on Human LOXL2, less than 300 nM; in assay [1], more than 3000 nM; at Recombinant human MAO-B it was more than 3000 nM.

On to `Cc1c(-c2cccc(Cl)c2)c2cc(C(=O)O)ccc2n1C/C(F)=C/CN` [Compound 28, (Z)-1-(4-amino-2-fluorobut-2-en-1-yl)-3-(3-chlorophenyl)-2-methyl-1H-indole-5-carboxylic acid], for which the IC50 against Bovine LOX is more than 300 nM; against Human LOXL2, less than 300 nM; in assay [1] it was more than 3000 nM; on Recombinant human MAO-B it was more than 3000 nM.

For `Cc1c(-c2cncc(S(=O)(=O)N(C)C)c2)c2c(Cl)cccc2n1C/C(F)=C/CN` [Compound 75, (Z)-5-(1-(4-amino-2-fluorobut-2-en-1-yl)-4-chloro-2-methyl-1H-indol-3-yl)-N,N-dimethylpyridine-3-sulfonamide], the 50% inhibitory concentration (IC50) was more than 300 nM on Bovine LOX, less than 300 nM on Human LOXL2, more than 3000 nM in assay [1] and more than 3000 nM at Recombinant human MAO-B.

For the compound `Cc1c(-c2cncc(S(=O)(=O)N(C)C)c2)c2cc(C(=O)N(C)C)ccc2n1C/C(F)=C/CN` [Compound 41, (Z)-1-(4-amino-2-fluorobut-2-en-1-yl)-3-(5-(N,N-dimethylsulfamoyl)pyridin-3-yl)-N,N,2-trimethyl-1H-indole-5-carboxamide], the IC50 is more than 300 nM against Bovine LOX, less than 300 nM on Human LOXL2, more than 3000 nM in assay [1] and more than 3000 nM on Recombinant human MAO-B.

Take `Cc1c(-c2cccc(S(=O)(=O)N(C)C)c2)c2nc(O)ccc2n1C/C(F)=C/CN` [Compound 60, (Z)-3-(1-(4-amino-2-fluorobut-2-en-1-yl)-5-hydroxy-2-methyl-1H-pyrrolo[3,2-b]pyridin-3-yl)-N,N-dimethylbenzenesulfonamide Hydrochloride]: the IC50 was more than 300 nM against Bovine LOX, less than 300 nM on Human LOXL2, more than 3000 nM in assay [1] and more than 3000 nM on Recombinant human MAO-B.

Consider `Cc1c(-c2cncnc2)c2cc(Cl)ccc2n1C/C(F)=C/CN` [Compound 80, (Z)-4-(5-chloro-2-methyl-3-(pyrimidin-5-yl)-1H-indol-1-yl)-3-fluorobut-2-en-1-amine], for which the IC50 against Bovine LOX was more than 300 nM; on Human LOXL2 it was less than 300 nM; in assay [1], more than 3000 nM; on Recombinant human MAO-B it was more than 3000 nM.

Consider `Cc1c(-c2cncc(S(=O)(=O)N(C)C)c2)c2cc(Cl)ccc2n1C/C(F)=C/CN` [Compound 64, (Z)-5-(1-(4-amino-2-fluorobut-2-en-1-yl)-5-chloro-2-methyl-1H-indol-3-yl)-N,N-dimethylpyridine-3-sulfonamide], for which the IC50 against Bovine LOX is more than 300 nM; on Human LOXL2 it was less than 300 nM; in assay [1], more than 3000 nM; at Recombinant human MAO-B, more than 3000 nM.

Regarding `Cc1c(-c2cccc(S(=O)(=O)N(C)C)c2)c2cnccc2n1C/C(F)=C/CN` [Compound 26, (Z)-3-(1-(4-amino-2-fluorobut-2-en-1-yl)-2-methyl-1H-pyrrolo[3,2-c]pyridin-3-yl)-N,N-dimethylbenzenesulfonamide Dihydrochloride], the IC50 against Bovine LOX was more than 300 nM; against Human LOXL2, less than 300 nM; in assay [1], more than 3000 nM; on Recombinant human MAO-B, more than 3000 nM.

Take `Cc1c(-c2cccc(S(=O)(=O)N(C)C)c2)c2cc(S(C)(=O)=O)ccc2n1C/C(F)=C/CN` [Compound 97, (Z)-3-(1-(4-amino-2-fluorobut-2-en-1-yl)-2-methyl-5-(methylsulfonyl)-1H-indol-3-yl)-N,N-dimethylbenzenesulfonamide]: the 50% inhibitory concentration (IC50) against Bovine LOX is more than 300 nM; at Human LOXL2 it was less than 300 nM; in assay [1] it was more than 3000 nM; on Recombinant human MAO-B, more than 3000 nM.

`Cc1c(-c2cccc(C(F)(F)F)c2)c2cc(C(=O)N(C)C)ccc2n1C/C(F)=C/CN` [Compound 56, (Z)-1-(4-amino-2-fluorobut-2-en-1-yl)-N,N,2-trimethyl-3-(3-(trifluoromethyl)phenyl)-1H-indole-5-carboxamide]: the IC50 on Bovine LOX is more than 300 nM; at Human LOXL2, less than 300 nM; in assay [1], more than 3000 nM; at Recombinant human MAO-B, more than 3000 nM.

Source of the values: patent US10717733B2, “Haloallylamine indole and azaindole derivative inhibitors of lysyl oxidases and uses thereof” (PHARMAXIS LTD., priority 2016, dated 2020).
